Legend:
[1] = test system: arachidonic acid-induced mouse ear edema; experiment: Arachidonic acid-induced mouse ear edema test, single topical application; type: in vivo; conditions: Balb/c mice; for reduction of the arachidonic acid-induced ear edema: 20 μl on right ear
Experimental: Evaluation of the Anti-Inflammatory Activity of W3646 (Compound (I)) after Single Topical Application in the Arachidonic Acid-Induced Mouse Ear Edema Test on Balb/c Mice
The arachidonic acid is dissolved in a mixture of THF/methanol at 4%.
The test compound is dissolved in the solution of arachidonic acid (AA) at the final concentration, and tested at concentrations of 0.1, 0.3 and 1%.
20 μl of the solution are applied to the inner face of the right ear.
The thickness of the ear is measured at T+1 h, T+2 h and T+4 h.

[2] = test system: TPA-induced mouse ear edema; experiment: TPA-induced mouse ear edema test, single topical application; type: in vivo; conditions: Balb/c mice; for reduction of the TPA-induced ear edema: T+6 h
Experimental: Evaluation of the Anti-Inflammatory Activity of W3646 (Compound (I)) after Single Topical Application in the TPA-Induced Mouse Ear Edema Test on Balb/c Mice (TPA=Tetradecanoylphorbol Acetate)
The edema is induced by single application of 20 μl of TPA dissolved in acetone at 0.01%. […]
A positive control, β-methasone valerate (VdB), is also tested.
The thickness of the mouse ear is measured at T+6 h.

## COc1ccc2c(c1)c(CC(=O)O)c(C)n2C(=O)c1ccc(Cl)cc1 [Indomethacin, reference compound]
[1]; indomethacin at 5%, single topical application in 4% arachidonic acid solution, ear thickness measured T+1 h, T+2 h, T+4 h
  inhibition of the ear edema caused by arachidonic acid: 92%

## COc1ccc(S(=O)(=O)N(c2cccc(/C(=C\C(=O)NO)c3cccnc3)c2)C(C)C)cc1 [W3646, E-3-[3-[N-(4-methoxybenzene-sulfonyl)-N-isopropylamino]phenyl]-3-(3-pyridyl)-propenohydroxamic acid]
[2]; 0.1% in 0.01% TPA solution, NS
  reduction of the TPA-induced ear edema: 26%
[2]; 0.3% in 0.01% TPA solution, **
  reduction of the TPA-induced ear edema: 53%
[2]; 1% in 0.01% TPA solution, ***
  reduction of the TPA-induced ear edema: 79%
[1]; 0.1% topical in 4% arachidonic acid solution, NS
  reduction of the arachidonic acid-induced ear edema: 16%
[1]; 0.3% topical in 4% arachidonic acid solution, *
  reduction of the arachidonic acid-induced ear edema: 49%
[1]; 1% topical in 4% arachidonic acid solution, **
  reduction of the arachidonic acid-induced ear edema: 71%

## CCCCC(=O)O[C@]1(C(=O)CO)[C@@H](C)C[C@H]2[C@@H]3CCC4=CC(=O)C=C[C@]4(C)[C@@]3(F)[C@@H](O)C[C@@]21C [betamethasone valerate, reference compound]
[2]; 0.01% diluted in 0.01% TPA solution, ear thickness at T+6 h, ***
  reduction in the TPA-induced ear edema: 93%
